Assay results as given in PMC3037272 (Journal of medicinal chemistry, 2010).

Key:
[1] = target: T1, 26S proteasome β1 subunit (Oryctolagus cuniculus, UniProt A0A5F9DQW2); format: biochemical, rabbit
T1 sequence (A0A5F9DQW2 1-212): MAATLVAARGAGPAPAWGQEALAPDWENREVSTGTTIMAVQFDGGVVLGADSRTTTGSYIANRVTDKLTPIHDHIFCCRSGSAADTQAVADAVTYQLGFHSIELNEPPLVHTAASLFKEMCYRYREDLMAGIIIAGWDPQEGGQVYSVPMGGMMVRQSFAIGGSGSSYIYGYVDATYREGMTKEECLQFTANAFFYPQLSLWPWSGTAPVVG

[2] = target: T2, 26S proteasome β2 subunit (Oryctolagus cuniculus, UniProt G1SWK8)
T2 sequence (G1SWK8 1-271): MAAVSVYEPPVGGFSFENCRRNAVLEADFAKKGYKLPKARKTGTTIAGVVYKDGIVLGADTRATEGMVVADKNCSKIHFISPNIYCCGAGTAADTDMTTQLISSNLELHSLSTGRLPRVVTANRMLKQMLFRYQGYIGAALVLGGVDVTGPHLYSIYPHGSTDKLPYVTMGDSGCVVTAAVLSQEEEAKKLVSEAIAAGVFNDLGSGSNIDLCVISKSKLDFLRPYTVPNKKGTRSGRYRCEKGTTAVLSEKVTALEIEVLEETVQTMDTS

[3] = target: T3, 26S proteasome β5 subunit (Oryctolagus cuniculus, UniProt G1T4Q9); format: biochemical, rabbit
T3 sequence (G1T4Q9 1-263): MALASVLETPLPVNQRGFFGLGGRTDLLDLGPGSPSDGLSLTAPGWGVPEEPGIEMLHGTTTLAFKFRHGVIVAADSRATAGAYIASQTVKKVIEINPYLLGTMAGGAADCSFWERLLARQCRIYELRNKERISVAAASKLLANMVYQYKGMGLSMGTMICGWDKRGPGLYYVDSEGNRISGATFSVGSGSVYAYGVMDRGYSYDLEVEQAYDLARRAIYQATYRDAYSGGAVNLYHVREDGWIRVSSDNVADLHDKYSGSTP

[4] = target: proteasome β5 subunit (Homo sapiens, UniProt P28074); assay: Competition assay against fluorescent probe MV151; format: binding; conditions: HEK-293 lysate
[5] = target: proteasome β1 subunit (Homo sapiens, UniProt P28072); assay: Competition assay against fluorescent probe MV151; format: binding; conditions: HEK-293 lysate, between 100 and 250 nM, competition against 9
[6] = target: proteasome β2 subunit (Homo sapiens, UniProt Q99436); assay: Competition assay against fluorescent probe MV151; conditions: HEK-293 lysate

SMILES	IC50 [1] [nM]	IC50 [2] [nM]	IC50 [3] [nM]	concentration at which inhibition of β5 is apparent ([4]; concentration series 1 nM to 1 μM, competition against 9) [nM]	effect on β1 when β5 is saturated [5]	effect on β2 when β5 is saturated ([6]; between 100 and 250 nM, competition against 9)	β2 band in competition assay ([6]; 1 μM inhibitor, Figure 3)	concentration at which labeling of the β5 subunit is visible ([4]; direct fluorescent labeling, read-out at 520 nm) [nM]
CC(C)C[C@H](NC(=O)[C@H](Cc1ccccc1)NC(=O)[C@H](Cc1ccccc1)NC(=O)[C@H](Cc1ccccc1)N=[N+]=[N-])C(=O)[C@@]1(C)CO1 [compound 3]	> 15000	–	–	–	–	–	–	–
CC(C)C[C@H](NC(=O)[C@H](Cc1ccccc1)NC(=O)[C@H](Cc1cc(C(F)(F)F)cc(C(F)(F)F)c1)NC(=O)[C@H](Cc1ccccc1)N=[N+]=[N-])C(=O)[C@@]1(C)CO1 [5b]	> 15000	> 15000	130	–	–	–	–	–
CC(C)C[C@H](NC(=O)[C@H](Cc1c(F)c(F)c(F)c(F)c1F)NC(=O)[C@H](Cc1ccccc1)NC(=O)[C@H](Cc1ccccc1)N=[N+]=[N-])C(=O)[C@@]1(C)CO1 [4a]	> 15000	–	–	5	unaffected or even upregulated	unaffected or even upregulated	the majority of the corresponding band in Figure 3 is gone	–
CC(C)C[C@H](NC(=O)[C@H](Cc1ccccc1)NC(=O)[C@H](Cc1c(F)c(F)c(F)c(F)c1F)NC(=O)[C@H](Cc1ccccc1)N=[N+]=[N-])C(=O)[C@@]1(C)CO1 [5a]	> 15000	> 15000	200	–	–	–	–	–
CC1=CC(C)=[N+]2C1=C(CCCCc1cn([C@@H](Cc3ccccc3)C(=O)N[C@@H](Cc3ccccc3)C(=O)N[C@@H](Cc3c(F)c(F)c(F)c(F)c3F)C(=O)N[C@@H](CC(C)C)C(=O)[C@@]3(C)CO3)nn1)c1c(C)cc(C)n1[B-]2(F)F [compound 7]	> 10000	> 10000	300	–	–	–	–	1

Second part, led by results:

IC50 [1] [nM]	IC50 [2] [nM]	IC50 [3] [nM]	concentration at which inhibition of β5 is apparent ([4]; concentration series 1 nM to 1 μM, competition against 9) [nM]	effect on β1 when β5 is saturated [5]	effect on β2 when β5 is saturated ([6]; between 100 and 250 nM, competition against 9)	SMILES	β2 band in competition assay ([6]; 1 μM inhibitor, Figure 3)	concentration at which labeling of the β5 subunit is visible ([4]; direct fluorescent labeling, read-out at 520 nm) [nM]
> 15000	> 15000	100	–	–	–	CC(C)C[C@H](NC(=O)[C@H](Cc1cc(C(F)(F)F)cc(C(F)(F)F)c1)NC(=O)[C@H](Cc1ccccc1)NC(=O)[C@H](Cc1ccccc1)N=[N+]=[N-])C(=O)[C@@]1(C)CO1 [4b]	–	–
160	11000	3	–	–	–	CC(C)C[C@H](NC(=O)[C@H](Cc1cc(C(F)(F)F)cc(C(F)(F)F)c1)NC(=O)c1cnccn1)B1OC2C[C@@H]3C[C@@H](C3(C)C)[C@]2(C)O1 (some centres unmarked) [2b]	–	–
440	–	–	–	–	–	CC(C)C[C@H](NC(=O)[C@H](Cc1c(F)c(F)c(F)c(F)c1F)NC(=O)c1cnccn1)B1OC2C[C@@H]3C[C@@H](C3(C)C)[C@]2(C)O1 (some centres unmarked) [2a]	–	–
